{"source": "paper PMC9909988", "about": "“Procoxacin bidirectionally inhibits osteoblastic and osteoclastic activity in bone and suppresses bone metastasis of prostate cancer” (Journal of Experimental & Clinical Cancer Research : CR, 2023)", "target": "T1, 14–3-3ζ (Homo sapiens, UniProt P63104)", "T1 construct": "gene YWHAZ", "T1 sequence (P63104 whole entry)": "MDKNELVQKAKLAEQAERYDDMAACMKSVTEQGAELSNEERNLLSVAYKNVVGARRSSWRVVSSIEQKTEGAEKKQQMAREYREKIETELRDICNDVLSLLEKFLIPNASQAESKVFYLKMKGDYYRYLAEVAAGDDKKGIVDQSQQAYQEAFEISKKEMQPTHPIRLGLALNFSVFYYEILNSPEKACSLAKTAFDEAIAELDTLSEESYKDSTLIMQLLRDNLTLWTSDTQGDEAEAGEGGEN", "experiment": "SPR (Biacore T200, […]-3ζ ab87361 captured on NTA chip); supported by Pro-conjugated magnetic bead pull-down from C4-2B lysate", "type": "binding", "data": [{"smiles": "CC[C@@H](C(=O)[C@@H](C)[C@@H](O)[C@H](C)[C@@H]1O[C@@H]([C@@H](CC)C(=O)O)CC[C@@H]1C)[C@H]1O[C@]2(C=C[C@@H](O)[C@]3(CC[C@@](C)([C@H]4CC[C@](O)(CC)[C@H](C)O4)O3)O2)[C@H](C)C[C@@H]1C", "note": "[Pro, Procoxacin]", "values": [{"measurement": "Kd", "result": 1930, "unit": "nM"}]}]}
